# What was measured:
# human PDHK1 (hPDHK1) = target: T1, human PDHK1 (hPDHK1) (Homo sapiens, UniProt Q15118); assay: Inhibitory action of PDHK1 activity in vitro (residual PDH activity after kinase reaction); type: biochemical; conditions: PDH/hPDHK1 complex, 45 min kinase reaction at room temperature
# T1 construct: made in house; host or cells: Escherichia coli BL21(DE3), pET17b vector
# Experimental: The inhibitory action of PDHK activity was assessed indirectly by measuring the residual PDH activity after kinase reaction in the presence of a test compound.
# In the case of human PDHK1 (hPDHK1, Genbank Accession No. L42450.1), a 1.3 kbp fragment encoding this protein was isolated from human liver cDNA by polymerase chain reaction (PCR). Modified hPDHK1 cDNA wherein FLAG-Tag sequence was added to the N terminus was prepared by PCR and cloned into a vector (pET17b-Novagen). The recombinant construct was transformed into Escherichia coli (DH5α-TOYOBO). The recombinant clones were identified, and plasmid DNA was isolated and subjected to the DNA sequence analysis. One clone which had the expected nucleic acid sequence was selected for expression work. […]
# Then, 10 μL of substrates (5 mmol/L sodium pyruvate, 5 mmol/L Coenzyme A, 12 mmol/L NAD, 5 mmol/L thiamin pyrophosphate, diluted with buffer) were added. The mixture was incubated at room temperature for 90 min, and the residual PDH activity was measured.
# 2.5 The absorbance at 340 nm before and after PDH reaction was measured using a microplate reader to detect NADH produced by the PDH reaction. The hPDHK1 inhibition rate (%) of the test compound was calculated from the formula [{(PDH activity of the test compound−PDH activity of control)/PDH activity of blank−PDH activity of control)}×100].
# [1] = Effect of repeated administration on HbA1c in ZDF rats; type: in vivo, Zucker Diabetic Fatty rats; conditions: 1 mg/kg oral once daily, day 27 of administration, vehicle 4.4 ± 0.4, p < 0.05 vs. vehicle
# Experimental: Zucker Diabetic Fatty rats (male, 7-week-old, CHARLES RIVER LABORATORIES JAPAN INC.), an animal model for type 2 diabetes, given a purified diet (5.9% fat diet, Oriental Yeast Co., Ltd.) were allocated to the vehicle group and the test compound groups so that no bias occurred in the plasma glucose and insulin levels, HbA1c levels and body weights. Repeated oral doses of the test compound (1 mg/kg/5 mL) were administered to the rats once daily at 3 hr before the dark period. A 0.5% aqueous methylcellulose solution was orally administered in the same manner to the rats of the vehicle group. On day 27 of administration, blood samples were collected from the tail vein and HbA1c level (%) was measured. Statistical analysis was performed by Dunnett's test. Values of p<0.05 were considered statistically significant.
# T1 sequence (Q15118 29-436): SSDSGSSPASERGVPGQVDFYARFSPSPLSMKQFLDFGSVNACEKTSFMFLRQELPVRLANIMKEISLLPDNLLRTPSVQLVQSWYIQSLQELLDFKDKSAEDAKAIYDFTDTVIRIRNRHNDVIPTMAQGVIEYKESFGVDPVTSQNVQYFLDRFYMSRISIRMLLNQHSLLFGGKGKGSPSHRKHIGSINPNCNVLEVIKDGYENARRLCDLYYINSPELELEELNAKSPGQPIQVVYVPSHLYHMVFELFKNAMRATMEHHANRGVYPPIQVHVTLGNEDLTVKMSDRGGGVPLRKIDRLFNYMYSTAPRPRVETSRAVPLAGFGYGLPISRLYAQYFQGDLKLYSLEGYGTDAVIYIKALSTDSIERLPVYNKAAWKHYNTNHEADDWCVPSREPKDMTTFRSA
structure (smiles),measurement,setting,value
"C[C@H](O)COc1cc(-c2cnn(C(C)(C)C(N)=O)c2)c2c(c1)[C@@](O)(C(F)(F)F)c1ccccc1-2 [compound (2), 2-(4-{(9R)-9-hydroxy-2-[(2S)-2-hydroxypropoxy]-9-(trifluoromethyl)-9H-fluoren-4-yl}-1H-pyrazol-1-yl)-2-methylpropanamide]",IC50,human PDHK1 (hPDHK1),5.1 nM
same,HbA1c (%),[1],3.9 ± 0.5 %

# Reference: patent US20150018403A1, “FLUORENE-AMIDE COMPOUNDS AND PHARMACEUTICAL USE THEREOF” (JAPAN TOBACCO INC., priority 2013, published 2015)
